For 30 compounds, EC50 results are on record in patent US9828381B2, “Substituted pyrazolopyrimidines and method of use” (AbbVie Deutschland GmbH & Co. KG, priority 2015, dated 2017).

For this assay, the target named is GABA-B receptor (Rattus norvegicus (Rat), UniProt O88871+Q9Z0U4). As to the kind of experiment: [35S]GTPgS binding assay, rat cortical membranes, in presence of EC25 GABA. Type of assay: biochemical. To be noted: rat brain cortex membranes; in presence of 1 μM GABA (EC25); positive allosteric modulation. The procedure:
Preparation of Rat Brain Membranes for Native Receptor Assays
Membranes from rat brain cortex were prepared as described in detail by Olpe et al. and stored at concentrations of 1.66 mg/mL protein at −80° C. until required. (Olpe, H.-R, et al. Eur J Pharmacol 1990; 187: 27-38).
[^35S] GTPgS Binding Assay
The composition of the assay mixtures [in a final volume of 200 μL in 96-well U-bottom plates (Greiner) was as follows: 50 mM Tris-HCl buffer, pH 7.7, 10 mM MgCl2, 0.2 mM EGTA, 2 mM CaCl2, 100 mM NaCl, 20 µM guanosine 5′-diphosphate (Sigma), 0.3 nM [^35S]GTPgS (1250 Ci/mmol (PerkinElmer)), and the test compounds at increasing concentrations (from 10 nM up to […]), […] of rat cortical membranes, and a concentration of […], that has been observed in previous experiments to correspond to the EC25, a concentration that gives 25% of the maximal response of GABA. The samples were incubated at room temperature for 60 minutes on a shaker. The incubation was stopped by rapid vacuum filtration over glass-fiber filter plates (UniFilter-96 well, GF/B membrane plates, PerkinElmer) using a 96-well plate harvester (TOMTEK© Harvester). The UniFilter plate was washed five times with ice-cold wash buffer (50 mM Tris-HCl buffer, pH 7.7, 10 mM MgCl2, and 100 mM NaCl. After filtration the plate was dried for 90 minutes at 55° C. The plates were closed on the bottom with black sealing membranes, and liquid scintillation cocktail (35 μL, Betaplate Scint, PerkinElmer) was added to each well. After sealing the top of the plate, an additional incubation step of 90 minutes at room temperature followed before measuring the plate. The amount of membrane-bound [^35S]GTPgS was measured using a 96-well plate reader (Microbeta®, PerkinElmer). Nonspecific binding was measured in the presence of unlabeled 10 μM of GTPgS (Millipore) and without GABA. Basal binding was measured in the absence of 1 μM GABA, and maximal binding was measured in the presence of GABA using 1 mM GABA concentrations.
Data analysis. The concentration-response curves of compounds of the present disclosure in the presence of EC25 of GABA-B receptor agonist were generated using the GraphPad Prism® program (GraphPad Software, San Diego, Calif.). Data was normalized using basal binding as 0% and maximal binding as 100%. The curves were fitted by nonlinear regression allowing determination of EC50 values from sigmoidal dose-response curves. Each curve was performed using triplicate sample per date point and 10 concentrations.
Background: GTPγS is a poorly hydrolysed GTP analogue; its binding reports G protein activation.

GABA-B receptor, sequence (Q9Z0U4 17-960): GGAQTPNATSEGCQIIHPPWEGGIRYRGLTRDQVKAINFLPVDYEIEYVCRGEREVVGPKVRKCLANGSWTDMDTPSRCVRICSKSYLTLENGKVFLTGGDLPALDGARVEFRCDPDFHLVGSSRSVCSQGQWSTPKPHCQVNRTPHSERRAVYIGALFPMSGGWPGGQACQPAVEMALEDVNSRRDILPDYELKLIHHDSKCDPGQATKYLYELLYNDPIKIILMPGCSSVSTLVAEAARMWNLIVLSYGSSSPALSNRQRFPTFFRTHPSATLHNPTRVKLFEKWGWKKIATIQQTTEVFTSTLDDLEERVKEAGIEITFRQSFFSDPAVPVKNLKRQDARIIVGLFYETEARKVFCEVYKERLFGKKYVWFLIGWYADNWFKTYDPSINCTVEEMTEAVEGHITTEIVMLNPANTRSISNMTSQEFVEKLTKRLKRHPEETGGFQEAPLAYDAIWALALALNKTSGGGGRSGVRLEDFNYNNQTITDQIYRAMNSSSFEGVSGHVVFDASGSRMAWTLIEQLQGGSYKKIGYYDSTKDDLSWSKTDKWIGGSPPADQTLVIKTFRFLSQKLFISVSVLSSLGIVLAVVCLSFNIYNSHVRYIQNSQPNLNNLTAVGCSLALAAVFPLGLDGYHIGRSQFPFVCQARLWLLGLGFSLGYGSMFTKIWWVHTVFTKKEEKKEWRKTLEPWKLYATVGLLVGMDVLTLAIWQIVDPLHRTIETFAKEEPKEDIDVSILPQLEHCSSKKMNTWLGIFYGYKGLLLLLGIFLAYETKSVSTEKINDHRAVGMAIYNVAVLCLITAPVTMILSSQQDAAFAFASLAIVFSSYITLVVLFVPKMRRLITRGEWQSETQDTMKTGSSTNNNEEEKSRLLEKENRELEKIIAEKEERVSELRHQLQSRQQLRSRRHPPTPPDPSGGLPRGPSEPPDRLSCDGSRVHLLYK
GABA-B receptor, sequence (O88871 41-940): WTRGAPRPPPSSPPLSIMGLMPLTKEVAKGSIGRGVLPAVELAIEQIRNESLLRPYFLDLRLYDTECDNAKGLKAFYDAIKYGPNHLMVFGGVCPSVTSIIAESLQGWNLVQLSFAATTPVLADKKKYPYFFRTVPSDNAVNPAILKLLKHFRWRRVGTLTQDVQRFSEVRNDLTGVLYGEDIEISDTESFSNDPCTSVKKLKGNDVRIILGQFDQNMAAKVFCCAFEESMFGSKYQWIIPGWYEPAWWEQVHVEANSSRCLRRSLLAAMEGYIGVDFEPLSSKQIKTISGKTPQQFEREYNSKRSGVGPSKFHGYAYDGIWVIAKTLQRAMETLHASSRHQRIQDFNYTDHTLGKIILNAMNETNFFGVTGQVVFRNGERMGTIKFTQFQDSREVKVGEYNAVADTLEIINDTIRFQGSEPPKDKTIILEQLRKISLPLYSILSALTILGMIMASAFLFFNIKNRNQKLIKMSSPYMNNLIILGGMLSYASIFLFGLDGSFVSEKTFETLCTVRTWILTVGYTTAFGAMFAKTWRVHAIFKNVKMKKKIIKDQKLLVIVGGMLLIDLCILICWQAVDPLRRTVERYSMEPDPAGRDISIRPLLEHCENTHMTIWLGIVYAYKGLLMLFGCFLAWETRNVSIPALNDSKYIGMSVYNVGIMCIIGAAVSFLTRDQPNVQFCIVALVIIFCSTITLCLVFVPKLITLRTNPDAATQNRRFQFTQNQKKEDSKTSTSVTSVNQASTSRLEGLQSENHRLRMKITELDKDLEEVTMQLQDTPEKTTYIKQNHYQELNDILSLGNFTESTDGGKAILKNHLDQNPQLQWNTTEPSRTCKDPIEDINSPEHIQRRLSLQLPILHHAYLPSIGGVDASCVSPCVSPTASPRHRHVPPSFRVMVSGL

For the compound `Cc1cc(NC2CC(F)(F)C2)n2nc(C(C)c3ccc(Cl)cc3)cc2n1` (stereo not drawn) [Example 2-21, 2-(1-(4-chlorophenyl)ethyl)-N-(3,3-difluorocyclobutyl)-5-methylpyrazolo[1,5-a]pyrimidin-7-amine], the EC50 turned out to be 394 nM.

For the compound `Cc1cc(N2CCCCC2CO)n2nc(Cc3ccc(Cl)cc3)cc2n1` (stereo not drawn) [Example 1-2, {1-[2-(4-chlorobenzyl)-5-methylpyrazolo[1,5-a]pyrimidin-7-yl]piperidin-2-yl}methanol], the EC50 came to 1660 nM. Consider `Cc1cc(NC2(C)CC2)n2nc(C(C)c3ccc(Cl)cc3)cc2n1` (stereo not drawn) [Example 2-2, 2-[1-(4-chlorophenyl)ethyl]-5-methyl-N-(1-methylcyclopropyl)pyrazolo[1,5-a]pyrimidin-7-amine], for which the EC50 turned out to be 435 nM. For the compound `Cc1cc(N2CCNC(=O)C2CCO)n2nc(C(C)c3ccc(C(F)(F)F)cc3)cc2n1` (stereo not drawn) [Example 8-13, 3-(2-hydroxyethyl)-4-(5-methyl-2-{1-[4-(trifluoromethyl)phenyl]ethyl}pyrazolo[1,5-a]pyrimidin-7-yl)piperazin-2-one], the EC50 is 2550 nM. For the compound `CC(=O)N[C@H]1CCN(c2cc(C)nc3cc(C(C)c4ccc(Cl)cc4)nn23)C1` (stereo partly drawn) [Example 2-17, N-[(3S)-1-{2-[1-(4-chlorophenyl)ethyl]-5-methylpyrazolo[1,5-a]pyrimidin-7-yl}pyrrolidin-3-yl]acetamide], the EC50 turned out to be 2180 nM. As for `CCC(c1ccc(Cl)cc1)c1cc2nc(C)cc(N3CCCCC3CCO)n2n1` (stereo not drawn) [Example 3-1, 2-(1-{2-[1-(4-chlorophenyl)propyl]-5-methylpyrazolo[1,5-a]pyrimidin-7-yl}piperidin-2-yl)ethanol], the EC50 worked out at 8 nM. On to `Cc1cc(N2CCC[C@@H](O)C2)n2nc(C(C)c3ccc(C(F)(F)F)cc3)cc2n1` (stereo partly drawn) [Example 8-5, (3R)-1-(5-methyl-2-{1-[4-(trifluoromethyl)phenyl]ethyl}pyrazolo[1,5-a]pyrimidin-7-yl)piperidin-3-ol], for which the EC50 was 365 nM. Turning to `Cc1cc(N2CCCCC2)n2nc(Cc3ccc(Cl)cc3)cc2n1` [Example 1-9, 2-(4-chlorobenzyl)-5-methyl-7-(piperidin-1-yl)pyrazolo[1,5-a]pyrimidine], the EC50 was found to be 2570 nM.

In the case of `Cc1cc(NCC(F)(F)F)n2nc(Cc3ccc(Cl)cc3)cc2n1` [Example 1-16, 2-(4-chlorobenzyl)-5-methyl-N-(2,2,2-trifluoroethyl)pyrazolo[1,5-a]pyrimidin-7-amine], the EC50 was more than 10000 nM. With `Cc1cc(N2CC3(CCOCC3)C2)n2nc(C(C)c3ccc(C(F)(F)F)cc3)cc2n1` (stereo not drawn) [Example 8-4, 5-methyl-7-(7-oxa-2-azaspiro[3.5]non-2-yl)-2-{1-[4-(trifluoromethyl)phenyl]ethyl}pyrazolo[1,5-a]pyrimidine], the EC50 was determined as 827 nM. Turning to `Cc1cc(NC(C)(C)C)n2nc(Cc3ccc(Cl)cc3)cc2n1` [Example 1-14, N-tert-butyl-2-(4-chlorobenzyl)-5-methylpyrazolo[1,5-a]pyrimidin-7-amine], the EC50 turned out to be 1030 nM. For the compound `Cc1cc(N2CCC[C@H](O)C2)n2nc(Cc3ccc(Cl)cc3)cc2n1` [Example 1-6, (3S)-1-[2-(4-chlorobenzyl)-5-methylpyrazolo[1,5-a]pyrimidin-7-yl]piperidin-3-ol], the EC50 stood at 974 nM.

As to `Cc1cc(N2CCCC(F)(F)C2)n2nc(C(c3ccc(Cl)cc3)C(C)C)cc2n1` (stereo not drawn) [Example 4-2, 2-[1-(4-chlorophenyl)-2-methylpropyl]-7-(3,3-difluoropiperidin-1-yl)-5-methylpyrazolo[1,5-a]pyrimidine], the EC50 came to 9 nM.

On to `CC(=O)N[C@@H]1CCN(c2cc(C)nc3cc(Cc4ccc(Cl)cc4)nn23)C1` [Example 1-11, N-{(3R)-1-[2-(4-chlorobenzyl)-5-methylpyrazolo[1,5-a]pyrimidin-7-yl]pyrrolidin-3-yl}acetamide], for which the EC50 is more than 10000 nM. `Cc1cc(N2CCCCC2CCO)n2nc(C(C)c3ccc(Cl)cc3)cc2n1` (stereo not drawn) [Example 2-1, 2-(1-{2-[1-(4-chlorophenyl)ethyl]-5-methylpyrazolo[1,5-a]pyrimidin-7-yl}piperidin-2-yl)ethanol]: the EC50 was 118 nM.

For `Cc1cc(N2CCC[C@H](NS(C)(=O)=O)C2)n2nc(Cc3ccc(Cl)cc3)cc2n1` [Example 11-1], the EC50 came to 3510 nM. For `Cc1cc(N2CC3(CCOCC3)C2)n2nc(C(C)c3ccc(Cl)cc3)cc2n1` (stereo not drawn) [Example 2-13, 2-[1-(4-chlorophenyl)ethyl]-5-methyl-7-(7-oxa-2-azaspiro[3.5]non-2-yl)pyrazolo[1,5-a]pyrimidine], the EC50 was found to be 446 nM. Turning to `Cc1cc(NCC2CC(F)(F)C2)n2nc(C(C)c3ccc(Cl)cc3)cc2n1` (stereo not drawn) [Example 2-16, 2-[1-(4-chlorophenyl)ethyl]-N-[(3,3-difluorocyclobutyl)methyl]-5-methylpyrazolo[1,5-a]pyrimidin-7-amine], the EC50 turned out to be 586 nM. As to `Cc1cc(NC2(C)CC2)n2nc(C(C)c3ccc(Cl)cn3)cc2n1` (stereo not drawn) [Example 9-7, 2-[1-(5-chloropyridin-2-yl)ethyl]-5-methyl-N-(1-methylcyclopropyl)pyrazolo[1,5-a]pyrimidin-7-amine], the EC50 came to 1320 nM. Consider `Cc1cc(N[C@H]2C[C@@H](O)C2)n2nc(C(C)c3ccc(Cl)cc3)cc2n1` (relative stereo) [Example 2-18, cis-3-({2-[1-(4-chlorophenyl)ethyl]-5-methylpyrazolo[1,5-a]pyrimidin-7-yl}amino)cyclobutanol], for which the concentration for a half-maximal effect (EC50) stood at 499 nM. As for `CC[C@@H]1CN(c2cc(C)nc3cc(C(C)c4ccc(Cl)cc4)nn23)[C@H]1C(=O)O` (stereo partly drawn) [Example 2-15, (2R,3R)-1-{2-[1-(4-chlorophenyl)ethyl]-5-methylpyrazolo[1,5-a]pyrimidin-7-yl}-3-ethylazetidine-2-carboxylic acid], the EC50 is 3930 nM. On to `Cc1cc(NC(C)(C)C)n2nc(C(C)c3ccc(Cl)cn3)cc2n1` (stereo not drawn) [Example 9-6, N-tert-butyl-2-[1-(5-chloropyridin-2-yl)ethyl]-5-methylpyrazolo[1,5-a]pyrimidin-7-amine], for which the concentration for a half-maximal effect (EC50) came to 798 nM. With `Cc1cc(N2CCCCC2CCO)n2nc(C(c3ccc(Cl)cc3)C(C)C)cc2n1` (stereo not drawn) [Example 4-1, 2-(1-{2-[1-(4-chlorophenyl)-2-methylpropyl]-5-methylpyrazolo[1,5-a]pyrimidin-7-yl}piperidin-2-yl)ethanol], the EC50 worked out at 5 nM. As to `CCCC(c1ccc(Cl)cc1)c1cc2nc(C)cc(N3CCCCC3CCO)n2n1` (stereo not drawn) [Example 5-1, 2-(1-{2-[1-(4-chlorophenyl)butyl]-5-methylpyrazolo[1,5-a]pyrimidin-7-yl}piperidin-2-yl)ethanol], the EC50 was determined as 3 nM. Turning to `Cc1cc(N2CCC(F)CC2)n2nc(C(C)c3ccc(Cl)cc3)cc2n1` (stereo not drawn) [Example 2-4, 2-[1-(4-chlorophenyl)ethyl]-7-(4-fluoropiperidin-1-yl)-5-methylpyrazolo[1,5-a]pyrimidine], the EC50 amounted to 128 nM.

On to `Cc1cc(N[C@H](C)C(F)(F)F)n2nc(Cc3ccc(Cl)cc3)cc2n1` [Example 1-20, 2-(4-chlorobenzyl)-5-methyl-N-[(2R)-1,1,1-trifluoropropan-2-yl]pyrazolo[1,5-a]pyrimidin-7-amine], for which the EC50 came to 2150 nM. Consider `Cc1cc(N2CCCCC2=O)n2nc(C(C)c3ccc(C(F)(F)F)cc3)cc2n1` (stereo not drawn) [Example 8-18, 1-(5-methyl-2-{1-[4-(trifluoromethyl)phenyl]ethyl}pyrazolo[1,5-a]pyrimidin-7-yl)piperidin-2-one], for which the EC50 is 746 nM. Then `Cc1cc(N2CCC3(CCC3O)C2)n2nc(C(C)c3ccc(Cl)cc3)cc2n1` (stereo not drawn) [Example 2-20, 6-{2-[1-(4-chlorophenyl)ethyl]-5-methylpyrazolo[1,5-a]pyrimidin-7-yl}-6-azaspiro[3.4]octan-1-ol], with 93 nM; and `CC(=O)N[C@@H]1CCN(c2cc(C)nc3cc(C(C)c4ccc(C(F)(F)F)cc4)nn23)C1` (stereo partly drawn) [Example 8-16, N-[(3R)-1-(5-methyl-2-{1-[4-(trifluoromethyl)phenyl]ethyl}pyrazolo[1,5-a]pyrimidin-7-yl)pyrrolidin-3-yl]acetamide], with 2180 nM.

As for `Cc1cc(N2CCCC(F)C2)n2nc(C(C)c3ccc(C(F)(F)F)cc3)cc2n1` (stereo not drawn) [Example 8-12, 7-(3-fluoropiperidin-1-yl)-5-methyl-2-{1-[4-(trifluoromethyl)phenyl]ethyl}pyrazolo[1,5-a]pyrimidine], the EC50 was found to be 370 nM.

As a reminder, the EC50 is the concentration giving half of the maximal effect.
